Read-outs that look alike come from different tables or passages of the source.
Molecular target: Escherichia coli DNA gyrase A/B tetramer (Escherichia coli (strain K12), UniProt P0AES4+P0AES6)
Assay: DNA gyrase supercoiling activity fluorescence polarisation assay
Format: biochemical
In short: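 Supercoiling reactions quenched with 40 nM 5′-BODIPY-FL triplex-forming oligonucleotide probe in pH 3.5 NaCl/sodium acetate buffer; after 60 min, fluorescence anisotropy read (ex 485/em 535 nm). IC50 by nonlinear regression, normalised to 0.8% DMSO (100% activity) and 5 μM ciprofloxacin (0% activity).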

[1] = 5 nM enzyme, relaxed plasmid, 0.3 mM ATP, ambient temperature, read-out: E. coli DNA gyrase supercoiling IC50

## C[C@@H]1CN2c3c(cc4c(-c5cnc(N6CCOCC6)cn5)noc4c3F)CC3(C(=O)NC(=O)NC3=O)[C@@H]2[C@@H](C)O1 [Example 166(a), (2R,4R,4aR)-11-fluoro-2,4-dimethyl-8-(5-morpholinopyrazin-2-yl)-2,4,4a,6-tetrahydro-1H,1′H-spiro[isoxazolo[4,5-g][1,4]oxazino[4,3-a]quinoline-5,5′-pyrimidine]-2′,4′,6′(3′H)-trione]
[1]
  IC50: 83000 nM

## Cc1nnsc1-c1noc2c(F)c3c(cc12)CC1(C(=O)NC(=O)NC1=O)[C@H]1[C@H](C)O[C@H](C)CN31 (racemic) [Example 72, (2R,4S,4aS)-rel-11-fluoro-2,4-dimethyl-8-(4-methyl-1,2,3-thiadiazol-5-yl)-1,2,4,4a-tetrahydro-2′H,6H-spiro[1,4-oxazino[4,3-a][1,2]oxazolo[4,5-g]quinoline-5,5′-pyrimidine]-2′,4′,6′(1′H,3′H)-trione]
  IC50: 900 nM

## C[C@@H]1CN2c3c(nc4c(-c5sc(Cl)nc5Cl)noc4c3Cl)CC3(C(=O)NC(=O)NC3=O)[C@H]2[C@H](C)O1 (relative stereo) [Example 116, (2R,4S,4aS)-rel-11-chloro-2,4-dimethyl-8-(2,4-dichlorothiazol-5-yl)-2,4,4a,6-tetrahydro-1H,1′H-spiro[isoxazolo[4,5-g][1,4]oxazino[4,3-a][1,5]naphthyridine-5,5′-pyrimidine]-2′,4′,6′(3′H)-trione]
[1]
  IC50: 2000 nM

## COC[C@@H]1O[C@H](C)CN2c3c(cc4c(C)noc4c3F)CC3(C(=O)NC(=O)NC3=O)[C@@H]12 (relative stereo) [Example 105, (2R,4R,4aS)-rel-11-fluoro-4-(methoxymethyl)-2,8-dimethyl-1,2,4,4a-tetrahydro-2′H,6H-spiro[1,4-oxazino[4,3-a][1,2]oxazolo[4,5-g]quinoline-5,5′-pyrimidine]-2′,4′,6′(1′H,3′H)-trione]
[1]
  IC50: 700 nM

## C[C@@H]1CN2c3c(cc4c(N5CCCCCC5)noc4c3F)CC3(C(=O)NC(=O)NC3=O)[C@H]2[C@H](C)O1 (relative stereo) [Example 26, (2R,4S,4aS)-rel-8-(azepan-1-yl)-11-fluoro-2,4-dimethyl-1,2,4,4a-tetrahydro-2′H,6H-spiro[isoxazolo[4,5-g][1,4]oxazino[4,3-a]quinoline-5,5′-pyrimidine]-2′,4′,6′(1′H,3′H)-trione]
[1]
  IC50: 3700 nM

## C[C@@H]1CN2c3c(cc4c(C(F)F)noc4c3F)CC3(C(=O)NC(=O)NC3=O)[C@H]2[C@H](C)O1 [Example 93(b), (2R,4S,4aS)-8-(difluoromethyl)-11-fluoro-2,4-dimethyl-2,4,4a,6-tetrahydro-1H,1′H-spiro[isoxazolo[4,5-g][1,4]oxazino[4,3-a]quinoline-5,5′-pyrimidine]-2′,4′,6′(3′H)-trione]
[1]
  IC50: 400 nM

## C[C@@H]1CN2c3c(cc4c(C(=O)N5CC(C#N)C5)noc4c3F)CC3(C(=O)NC(=O)NC3=O)[C@H]2[C@H](C)O1 (relative stereo) [Example 164, 1-((2R,4 S,4 aS)-rel-11-fluoro-2,4-dimethyl-2′,4′,6′-trioxo-2,2′,3′,4,4a,4′,6,6′-octahydro-1H,1′H-spiro[isoxazolo[4,5-g][1,4]oxazino[4,3-a]quinoline-5,5′-pyrimidine]-8-ylcarbonyl)azetidine-3-carbonitrile]
  IC50: 1200 nM

## C[C@@H]1CN2c3c(cc4c(-c5ccnc(O)n5)noc4c3F)CC3(C(=O)NC(=O)NC3=O)[C@H]2[C@H](C)O1 [Example 175, (2R,4S,4aS)-11-fluoro-8-(2-hydroxypyrimidin-4-yl)-2,4-dimethyl-1,2,4,4a-tetrahydro-2′H,6H-spiro[isoxazolo[4,5-g][1,4]oxazino[4,3-a]quinoline-5,5′-pyrimidine]-2′,4′,6′(1′H,3′H)-trione]
[1]
  IC50: 900 nM

## C[C@@H]1CN2c3c(cc4c(-c5cnccn5)noc4c3F)CC3(C(=O)NC(=O)NC3=O)[C@H]2[C@H](C)O1 [Example 165(b), (2R,4S,4aS)-11-fluoro-2,4-dimethyl-8-(pyrazin-2-yl)-2,4,4a,6-tetrahydro-1H,1′H-spiro[isoxazolo[4,5-g][1,4]oxazino[4,3-a]quinoline-5,5′-pyrimidine]-2′,4′,6′(3′H)-trione]
[1]
  IC50: 200 nM

## C[C@@H]1CN2c3c(cc4c(C(=O)NCC(F)F)noc4c3F)CC3(C(=O)NC(=O)NC3=O)[C@H]2[C@H](C)O1 (racemic) [Example 94, (2R,4 S,4 aS)-rel-N-(2,2-difluoroethyl)-11-fluoro-2,4-dimethyl-2′,4′,6′-trioxo-2,2′,3′,4,4a,4′,6,6′-octahydro-1H,1′H-spiro[isoxazolo[4,5-g][1,4]oxazino[4,3-a]quinoline-5,5′-pyrimidine]-8-carboxamide]
[1]
  IC50: 1600 nM

## C[C@@H]1CN2c3c(cc4c(-n5cc(-c6ccncn6)cn5)noc4c3F)CC3(C(=O)NC(=O)NC3=O)[C@H]2[C@H](C)O1 (relative stereo) [Example 34, (2R,4S,4aS)-rel-11-fluoro-2,4-dimethyl-8-[4-(pyrimidin-4-yl)-1H-pyrazol-1-yl]-1,2,4,4a-tetrahydro-2′H,6H-spiro[1,4-oxazino[4,3-a][1,2]oxazolo[4,5-g]quinoline-5,5′-pyrimidine]-2′,4′,6′(1′H,3′H)-trione]
[1]
  IC50: 16300 nM

## C[C@@H]1CN2c3c(cc4c(C5CCOCC5)noc4c3F)CC3(C(=O)NC(=O)NC3=O)[C@H]2[C@H](C)O1 (relative stereo) [Example 100, (2R,4S,4aS)-rel-11-fluoro-2,4-dimethyl-8-(tetrahydro-2H-pyran-4-yl)-2,4,4a,6-tetrahydro-1H,1′H-spiro[isoxazolo[4,5-g][1,4]oxazino[4,3-a]quinoline-5,5′-pyrimidine]-2′,4′,6′(3′H)-trione]
[1]
  IC50: 4100 nM

## CNC(=O)c1noc2c(F)c3c(cc12)CC1(C(=O)NC(=O)NC1=O)[C@H]1[C@H](C)O[C@H](C)CN31 (relative stereo) [Example 140, (2R,4S,4aS)-rel-11-fluoro-N,2,4-trimethyl-2′,4′,6′-trioxo-2,2′,3′,4,4a,4′,6,6′-octahydro-1H,1′H-spiro[isoxazolo[4,5-g][1,4]oxazino[4,3-a]quinoline-5,5′-pyrimidine]-8-carboxamide]
[1]
  IC50: 1100 nM

## C[C@@H]1CN2c3c(cc4c(NCc5ccncc5)noc4c3F)CC3(C(=O)NC(=O)NC3=O)[C@H]2[C@H](C)O1 (relative stereo) [Example 16, (2R,4S,4aS)-rel-11-fluoro-2,4-dimethyl-8-[(pyridin-4-ylmethyl)amino]-1,2,4,4a-tetrahydro-2′H,6H-spiro[1,4-oxazino[4,3-a][1,2]oxazolo[4,5-g]quinoline-5,5′-pyrimidine]-2′,4′,6′(1′H,3′H)-trione]
[1]
  IC50: 2400 nM

## C[C@@H]1CN2c3c(cc4c(-c5ccnc(N)n5)noc4c3F)CC3(C(=O)NC(=O)NC3=O)[C@H]2[C@H](C)O1 [Example 174, (2R,4S,4aS)-8-(2-aminopyrimidin-4-yl)-11-fluoro-2,4-dimethyl-2,4,4a,6-tetrahydro-1H,1′H-spiro[isoxazolo[4,5-g][1,4]oxazino[4,3-a]quinoline-5,5′-pyrimidine]-2′,4′,6′(3′H)-trione]
[1]
  IC50: 500 nM

## C[C@@H]1CN2c3c(nc4c(-c5ccccn5)noc4c3Cl)CC3(C(=O)NC(=O)NC3=O)[C@H]2[C@H](C)O1 (relative stereo) [Example 107, (2R,4S,4aS)-rel-11-chloro-2,4-dimethyl-8-(pyridyin-2-yl)-2,4,4a,6-tetrahydro-1H,1′H-spiro[isoxazolo[4,5-g][1,4]oxazino[4,3-a][1,5]naphthyridine-5,5′-pyrimidine]-2′,4′,6′(3′H)-trione]
[1]
  IC50: 1400 nM

## C[C@H]1CN2c3c(nc4c(-c5nccs5)noc4c3Cl)CC3(C(=O)NC(=O)NC3=O)[C@@H]2[C@@H](C)O1 [Example 111(a), (2S,4R,4aR)-11-chloro-2,4-dimethyl-8-(thiazol-2-yl)-2,4,4a,6-tetrahydro-1H,1′H-spiro[isoxazolo[4,5-g][1,4]oxazino[4,3-a][1,5]naphthyridine-5,5′-pyrimidine]-2′,4′,6′(3′H)-trione]
[1]
  IC50: 83000 nM

## C[C@@H]1CN2c3c(cc4c(-c5nccnc5Cl)noc4c3F)CC3(C(=O)NC(=O)NC3=O)[C@H]2[C@H](C)O1 (relative stereo) [Example 78, (2R,4S,4aS)-rel-8-(3-chloropyrazin-2-yl)-11-fluoro-2,4-dimethyl-2,4,4a,6-tetrahydro-1H,1′H-spiro[isoxazolo[4,5-g][1,4]oxazino[4,3-a]quinoline-5,5′-pyrimidine]-2′,4′,6′(3′H)-trione]
[1]
  IC50: 800 nM

## CCN(CC)c1noc2c(F)c3c(cc12)CC1(C(=O)NC(=O)NC1=O)[C@H]1[C@H](C)O[C@H](C)CN31 (relative stereo) [Example 23, (2R,4S,4aS)-rel-8-(diethylamino)-11-fluoro-2,4-dimethyl-1,2,4,4a-tetrahydro-2′H,6H-spiro[isoxazolo[4,5-g][1,4]oxazino[4,3-a]quinoline-5,5′-pyrimidine]-2′,4′,6′(1′H,3′H)-trione]
[1]
  IC50: 4300 nM

## C[C@@H]1CN2c3c(cc4c(C(N)=O)noc4c3F)CC3(C(=O)NC(=O)NC3=O)[C@H]2[C@H](C)O1 (relative stereo) [Example 142, (2R,4S,4aS)-rel-11-fluoro-2,4-dimethyl-2′,4′,6′-trioxo-2,2′,3′,4,4a,4′,6,6′-octahydro-^1H,1′H-spiro[isoxazolo[4,5-g][1,4]oxazino[4,3-a]quinoline-5,5′-pyrimidine]-8-carboxamide]
  IC50: 300 nM

## C[C@@H]1CN2c3c(cc4c(-c5cncnc5)noc4c3Cl)CC3(C(=O)NC(=O)NC3=O)[C@H]2[C@H](C)O1 (racemic) [Example 44, (2R,4S,4 aS)-rel-11-chloro-2,4-dimethyl-8-(pyrimidin-5-yl)-1,2,4,4a-tetrahydro-2′H,6H-spiro[1,4-oxazino[4,3-a][1,2]oxazolo[4,5-g]quinoline-5,5′-pyrimidine]-2′,4′,6′(1′H,3′H)-trione]
[1]
  IC50: 1000 nM
